Measured values published in patent US10959427B2, “Attractant of ladybugs, aphid's natural enemy” (Zhejiang University, priority 2018, dated 2021).

Tested on: Coccinella septempunctata
Experiment: Wind tunnel experiment: behavioral responses of ladybugs to the attractant
Type: in vivo
Conditions: for Proportion of Knocking Filter Paper, Female Proportion / Proportion of Passing Through ½ of Wind Tunnel, Female Proportion / Proportion of Take Off, Female Proportion: female ladybugs; for Proportion of Knocking Filter Paper, Female Proportion / Proportion of Knocking Filter Paper, Male Proportion: number of insects knocking filter paper/total number of insects; for Proportion of Knocking Filter Paper, Female Proportion / Proportion of Passing Through ½ of Wind Tunnel, Female Proportion / Proportion of Take Off, Female Proportion / Proportion of Knocking Filter Paper, Male Proportion / Proportion of Passing Through ½ of Wind Tunnel, Male Proportion / Proportion of Take Off, Male Proportion: 30 min, 28° C., wind speed 0.3 m/s; for Proportion of Passing Through ½ of Wind Tunnel, Female Proportion / Proportion of Passing Through ½ of Wind Tunnel, Male Proportion: number of insects passing through ½ of wind tunnel/total number of insects; for Proportion of Take Off, Female Proportion / Proportion of Take Off, Male Proportion: number of take-off insects/total number of insects; for Proportion of Knocking Filter Paper, Male Proportion / Proportion of Passing Through ½ of Wind Tunnel, Male Proportion / Proportion of Take Off, Male Proportion: male ladybugs; for Attraction of ladybugs in the wind tunnel, result in words: summary of wind tunnel results
Method: (§1) Wind tunnel experiments were performed using a wind tunnel device to determine the behavioral responses of ladybugs to the attractant. The wind tunnel device is 90 cm long, 35 cm wide and 35 cm high. The desired ladybugs were put into a glass tube 30 minutes before the test, and both the ends of the glass tube were sealed with absorbent cotton to adapt the ladybugs to the environment in the wind tunnel. The filter paper-loaded compound was placed on the upper air outlet, and the wind speed in the wind tunnel was 0.3 m/s. The whole process of bioassay was carried out at 28° C. The glass tube was placed at the end of the lower air outlet of the wind tunnel. Timing started and lasted for 30 min. The numbers of take-offs, directional flights, and proximity to attractant sources were recorded and their relative proportions were calculated. The experimental method was referred to the wind tunnel experiment of Binyameen M et al (Journal of Chemical Ecology, 2013, 39(10):1273-1283).
The behavioral responses of ladybugs to the attractants in Comparative Examples 1-5 were measured by using a wind tunnel device (same conditions as in Example 1).
as §1, with “to the attractants. The wind” for “to the attractant. The wind”, “glass tube with the ladybugs was placed” for “glass tube was placed”, “min. The proportions of take-offs,” for “min. The numbers of take-offs,”, “sources were recorded.” for “sources were recorded and their relative proportions were calculated. The experimental method was referred to the wind tunnel experiment of Binyameen M et al (Journal of Chemical Ecology, 2013, 39(10):1273-1283).”
Wind tunnel experiments were performed using a wind tunnel device to determine the behavioral responses of ladybugs to the attractants of Example 3 and Comparative Examples 6-10.
Wind tunnel experiments were performed using a wind tunnel device to determine the behavioral responses of ladybugs to the attractants of Example 4 and Comparative Examples11-20.
Note: Coccinella septempunctata were used in the above wind tunnel experiments; when the Rodolia limbata, Harmonia axyridis, Propylaea japonica and Chilocorus rubidus hope were taken as the experiment objects, the results (trend) were basically the same as that of Coccinella septempunctata.

| Structure (SMILES) | Proportion of Knocking Filter Paper, Female Proportion [%] | Proportion of Passing Through ½ of Wind Tunnel, Female Proportion [%] | Proportion of Take Off, Female Proportion [%] | Proportion of Knocking Filter Paper, Male Proportion [%] | Proportion of Passing Through ½ of Wind Tunnel, Male Proportion [%] | Proportion of Take Off, Male Proportion | Attraction of ladybugs in the wind tunnel, result in words |
| --- | --- | --- | --- | --- | --- | --- | --- |
| CCC/C=C/C(=O)O [Comparative Example 18, trans-2-hexenoic acid] | 10 | 53.3 | 11.7 | 8.3 | 46.7 | 20% | poor attraction to female and male ladybugs |
| CC(C)=CCC/C(C)=C/CC/C(C)=C/CC/C=C(\C)CC/C=C(\C)CCC=C(C)C [Comparative Example 20, squalene] | 13.3 | 61.7 | 20 | 6.7 | 66.7 | 26.8%^ | number of insects knocking filter paper was significant less that the other examples |
| CC(C)CC=O [Comparative Example 19, isovaleraldehyde] | 11.7 | 58.3 | 13.3 | 15 | 56.7 | 10% | poor attraction to female and male ladybugs |
| C=CC1(C)CCC(C(=C)C)CC1C(=C)C (stereo not shown) [Comparative Example 16, 1-vinyl-1-methyl-2,4-di (propyl-1-ene-2-yl) cyclohexane] | 0 | 13.3 | 0 | 11.7 | 73.3 | 21.7%^ | better effect on attracting male ladybugs but worse than Example 4 |
